Like-named read-outs stand apart in the source and are kept apart here.
Key:
HeLa-HRE cells = assay: Resazurin cytotoxicity assay, HeLa-HRE, 48 h; conditions: for IC50(HeLa)/IC50(A549): ratio HeLa vs A549; for IC50: read-out: IC50(nM): HeLa, HeLa, 48 h
Procedure: (§1) We used A549 lung cancer and HeLa cervical cancer cell lines for initial screening of the prodrugs.
HeLa-HRE cells were treated with prodrugs of the
Dose -response curves were calculated from at least 27 incremental single concentrations over a
range of at least three log units.

A549 cells = assay: Resazurin cytotoxicity assay, A549, 72 h; conditions: read-out: IC50(nM): A549
Procedure: as §1
Fi gure S9: Cell ular resazurin-based cytotoxi ci ty as s a y.
Dose -response curves were calculated from at least 27 incremental single concentrations over a range
of at least three log units. Individual experiments with annotated experiment numbers are shown for each prodrug

[1] = tested on: NCI-60 standardized human tumor cell line panel; assay: cells; assay type: cell-based; conditions: AZI sheet, read-out: GI50

COC(=O)Oc1cc2c(c3ccccc13)[C@H](CCl)CN2C(=O)c1cc2cc(OC)c(OC)c(OC)c2[nH]1 [MC-CBI-TMI]
IC50(HeLa)/IC50(A549) (HeLa-HRE cells): 1.5 | IC50 (HeLa-HRE cells): 4.3 nM | IC50 (A549 cells): 2.9 nM

CN(CCSSCCN1CCOCC1)C(=O)Oc1cc2c(c3ccccc13)[C@H](CCl)CN2C(=O)c1cc2cc(OCCCN3CCC3)ccc2[nH]1 [SS00M-CBI-AZI]
GI50 ([1]; 786-0): 32 nM | GI50 ([1]; A498): 9.1 nM | GI50 ([1]; A549/ATCC): 4.5 nM | GI50 ([1]; ACHN): 28 nM | GI50 ([1]; BT-549): 84 nM | GI50 ([1]; CAKI-1): 37 nM | GI50 ([1]; CCRF-CEM): 100 nM | GI50 ([1]; COLO 205): 320 nM | GI50 ([1]; DU-145): 12 nM | GI50 ([1]; EKVX): 42 nM | GI50 ([1]; HCC-2998): 27 nM | GI50 ([1]; HCT-15): 57 nM | GI50 ([1]; HCT-116): 45 nM | GI50 ([1]; HL-60(TB)): 130 nM | GI50 ([1]; HOP-62): 2.5 nM | GI50 ([1]; HOP-92): 380 nM | GI50 ([1]; HT29): 70 nM | GI50 ([1]; IGROV1): 45 nM | GI50 ([1]; K-562): 75 nM | GI50 ([1]; KM12): 31 nM | GI50 ([1]; LOX IMVI): 8.7 nM | GI50 ([1]; M14): 10 nM | GI50 ([1]; MALME-3M): 48 nM | GI50 ([1]; MCF7): 7.5 nM | GI50 ([1]; MDA-MB-231): 71.1 nM | GI50 ([1]; MDA-MB-435): 37 nM | GI50 ([1]; MDA-MB-468): 40 nM | GI50 ([1]; MOLT-4): 50 nM | GI50 ([1]; NCI-H23): 10 nM | GI50 ([1]; NCI-H226): 9.5 nM | GI50 ([1]; NCI-H522): 270 nM | GI50 ([1]; OVCAR-3): 240 nM | GI50 ([1]; OVCAR-4): 620 nM | GI50 ([1]; OVCAR-5): 68 nM | GI50 ([1]; OVCAR-8): 25 nM | GI50 ([1]; PC-3): 39.6 nM | GI50 ([1]; RPMI-8226): 470 nM | GI50 ([1]; RXF 393): 41 nM | GI50 ([1]; SF-268): 24 nM | GI50 ([1]; SF-295): 3 nM | GI50 ([1]; SF-539): 51 nM | GI50 ([1]; SK-MEL-2): 49 nM | GI50 ([1]; SK-MEL-5): 6.3 nM | GI50 ([1]; SK-MEL-28): 29 nM | GI50 ([1]; SK-OV-3): 8.7 nM | GI50 ([1]; SN12C): 65 nM | GI50 ([1]; SNB-19): 6.6 nM | GI50 ([1]; SR): 7.4 nM | GI50 ([1]; SW-620): 46 nM | GI50 ([1]; T-47D): 290 nM | GI50 ([1]; TK-10): 970 nM | GI50 ([1]; U251): 3.6 nM | GI50 ([1]; UACC-62): 6.2 nM | GI50 ([1]; UACC-257): 92 nM | GI50 ([1]; UO-31): 44 nM | IC50(HeLa)/IC50(A549) (HeLa-HRE cells): 1.7 | IC50 (HeLa-HRE cells): 6.9 nM | IC50 (A549 cells): 4.1 nM

COC(=O)Oc1cc2c(c3ccccc13)[C@H](CCl)CN2C(=O)c1cc2cc(OCCCN3CCC3)ccc2[nH]1 [MC-CBI-AZI]
IC50(HeLa)/IC50(A549) (HeLa-HRE cells): 0.5 | IC50 (HeLa-HRE cells): 0.8 nM | IC50 (A549 cells): 1.6 nM

From article PMC10141580, “Cyclic Dichalcogenides Extend the Reach of Bioreductive Prodrugs to Harness Thiol/Disulfide Oxidoreductases: Applications to seco-Duocarmycins Targeting the Thioredoxin System” (ACS Central Science, 2023)
